Assay results taken from the supplement of paper PMC10307832.

Legend:
Experiment in all cases: relative viability (nuclei count vs DMSO), 5 days (fraction); higher = more cells survive
Seliciclib + Trametinib = compound: CC[C@H](CO)Nc1nc(NCc2ccccc2)c2ncn(C(C)C)c2n1 [Seliciclib] + CC(=O)Nc1cccc(-n2c(=O)n(C3CC3)c(=O)c3c(Nc4ccc(I)cc4F)n(C)c(=O)c(C)c32)c1 [Trametinib] (partner 0.02 µM)
Summary of the method: (§1)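 Nuclei were stained with Hoechst during a one-step fixation (final 0.05% Triton X-100, 1% formaldehyde, 1 ug/ml Hoechst) carried out 5 days after dosing, then counted on 4× images. The cells, lung cancer lines in 1536-well plates, had been dosed by pin tool the day after seeding with one drug alone or a fixed anchor-drug dose plus five library-drug doses (not always all listed) in √10 steps. Relative viability is the nuclei count in treated wells divided by that in vehicle wells, and each value is the median of duplicate plates.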

Seliciclib + Lapatinib = compound: CC[C@H](CO)Nc1nc(NCc2ccccc2)c2ncn(C(C)C)c2n1 [Seliciclib] + CS(=O)(=O)CCNCc1ccc(-c2ccc3ncnc(Nc4ccc(OCc5cccc(F)c5)c(Cl)c4)c3c2)o1 [Lapatinib] (partner 2 µM)
Summary of the method: as §1

Seliciclib + Olaparib = compound: CC[C@H](CO)Nc1nc(NCc2ccccc2)c2ncn(C(C)C)c2n1 [Seliciclib] + O=C(c1cc(Cc2n[nH]c(=O)c3ccccc23)ccc1F)N1CCN(C(=O)C2CC2)CC1 [Olaparib] (partner 8 µM)
Summary of the method: as §1

Seliciclib + Phenformin = compound: CC[C@H](CO)Nc1nc(NCc2ccccc2)c2ncn(C(C)C)c2n1 [Seliciclib] + N=C(N)NC(=N)NCCc1ccccc1 [Phenformin] (partner 250 µM)
Summary of the method: as §1

| Cell Line | relative viability (Seliciclib + Trametinib; first compound 0.08 µM) | relative viability (Seliciclib + Trametinib; first compound 0.253 µM) | relative viability (Seliciclib + Trametinib; first compound 0.8 µM) | relative viability (Seliciclib + Trametinib; first compound 2.53 µM) | relative viability (Seliciclib + Trametinib; first compound 8 µM) | relative viability (Seliciclib + Lapatinib; first compound 0.08 µM) | relative viability (Seliciclib + Lapatinib; first compound 0.253 µM) | relative viability (Seliciclib + Lapatinib; first compound 0.8 µM) | relative viability (Seliciclib + Lapatinib; first compound 2.53 µM) | relative viability (Seliciclib + Lapatinib; first compound 8 µM) | relative viability (Seliciclib + Olaparib; first compound 0.08 µM) | relative viability (Seliciclib + Olaparib; first compound 0.253 µM) | relative viability (Seliciclib + Olaparib; first compound 0.8 µM) | relative viability (Seliciclib + Olaparib; first compound 2.53 µM) | relative viability (Seliciclib + Olaparib; first compound 8 µM) | relative viability (Seliciclib + Phenformin; first compound 0.08 µM) | relative viability (Seliciclib + Phenformin; first compound 0.8 µM) | relative viability (Seliciclib + Phenformin; first compound 2.53 µM) | relative viability (Seliciclib + Phenformin; first compound 8 µM) | relative viability (Seliciclib + Phenformin; first compound 0.253 µM) |
| --- | --- | --- | --- | --- | --- | --- | --- | --- | --- | --- | --- | --- | --- | --- | --- | --- | --- | --- | --- | --- |
| NCI-H647 | 0.392 | 0.37 | 0.427 | 0.512 | 0.508 | 1.25 | 1.11 | 1.07 | 1.28 | 1.01 | 0.526 | 0.433 | 0.512 | 0.649 | 0.313 | 0.515 | 0.537 | 0.603 | 0.409 |  |
| LC-2-ad | 0.9 | 0.976 | 0.867 | 0.907 | 0.79 | 0.948 | 1.15 | 0.895 | 0.829 | 0.857 | 0.64 | 0.759 | 0.681 | 0.794 | 0.638 | 0.552 | 0.593 | 0.368 | 0.514 | 0.579 |
| HCC-827 | 0.494 | 0.519 | 0.525 | 0.533 | 0.365 | 0.208 | 0.246 | 0.203 | 0.225 | 0.188 | 0.623 | 0.66 | 0.644 | 0.612 | 0.624 | 0.4 | 0.402 | 0.435 | 0.351 | 0.422 |
| HCC-78 | 0.737 | 0.94 | 0.746 | 0.83 | 0.513 | 0.931 | 1.39 | 0.881 | 0.559 | 0.479 | 0.693 | 0.906 | 0.695 | 0.604 | 0.499 | 0.706 | 0.65 | 0.536 | 0.474 | 0.795 |
| NCI-H2085 | 0.509 | 0.475 | 0.513 | 0.41 | 0.343 | 0.739 | 0.793 | 0.667 | 0.635 | 0.497 | 0.734 | 0.845 | 0.73 | 0.738 | 0.63 | 0.714 | 0.692 | 0.71 | 0.611 | 0.658 |
| PC-14 | 0.788 | 0.529 | 0.719 | 0.721 | 0.532 | 0.306 | 0.262 | 0.315 | 0.309 | 0.263 | 0.286 | 0.285 | 0.29 | 0.343 | 0.266 | 0.665 | 0.553 | 0.463 | 0.319 | 0.431 |
| NCI-H358 | 0.137 | 0.124 | 0.143 | 0.104 | 0.0859 | 0.429 | 0.5 | 0.407 | 0.305 | 0.253 | 0.588 | 0.595 | 0.546 | 0.561 | 0.346 | 0.347 | 0.248 | 0.241 | 0.209 | 0.392 |
| ABC-1 |  |  |  |  |  | 1.18 | 1.06 | 1.19 | 1.17 | 0.894 | 0.864 | 0.741 | 0.615 |  | 0.782 | 0.251 | 0.234 | 0.281 | 0.222 | 0.257 |
| ChaGo-K-1 | 0.838 | 0.87 | 0.894 | 0.873 | 0.745 |  |  |  |  |  | 0.424 | 0.464 | 0.379 | 0.425 | 0.359 | 0.485 | 0.508 | 0.422 | 0.384 | 0.389 |
| EBC-1 |  |  |  |  |  | 0.25 | 0.225 | 0.251 | 0.23 | 0.227 | 0.712 | 0.651 | 0.734 | 0.665 | 0.461 |  |  |  |  |  |
| NCI-H441 | 0.563 | 0.552 | 0.557 | 0.241 | 0.454 |  |  |  |  |  | 0.525 | 0.451 | 0.562 | 0.466 | 0.448 | 0.836 | 0.805 | 0.459 | 0.632 | 0.804 |
| A549 |  |  |  |  |  | 1 | 0.913 | 0.991 | 0.981 | 0.623 | 0.3 | 0.41 | 0.251 | 0.26 | 0.361 | 0.154 | 0.183 | 0.171 | 0.127 |  |
| NCI-H2342 | 0.705 | 0.598 | 0.865 | 0.752 | 0.887 |  |  |  |  |  | 0.417 | 0.394 | 0.347 | 0.429 | 0.453 | 0.606 | 0.533 | 0.496 | 0.521 | 0.54 |
| NCI-H1703 |  |  |  |  |  | 1.07 | 0.861 | 1.03 | 1.14 | 0.846 | 0.467 | 0.54 | 0.528 | 0.439 | 0.352 |  |  |  |  |  |
| LCLC-103H | 0.666 | 0.711 | 0.647 | 0.681 | 0.682 |  |  |  |  |  | 0.671 | 0.81 | 0.748 | 0.774 | 0.704 | 0.393 | 0.347 | 0.308 | 0.316 | 0.337 |
| NCI-H1648 | 0.5 | 0.501 | 0.478 | 0.406 | 0.394 |  |  |  |  |  | 1.2 | 0.968 | 0.735 | 0.734 | 0.397 |  |  |  |  |  |
| NCI-H1563 |  |  |  |  |  | 1.03 | 0.842 | 0.957 | 0.851 | 0.845 |  |  |  |  |  | 0.754 | 0.651 | 0.626 | 0.664 | 0.63 |
